The text below walks through data of patent publication US20250296937A1, “CYCLIC BISBENZYL TETRAHYDROISOQUINOLINE COMPOUND, AND PREPARATION METHOD THEREFOR AND USE THEREOF” (Shanghai Institute of Materia Medica, Chinesse Academy of …, priority 2021, published 2025).

The subject of this assay is LPS-induced acute inflammation. Description: In vivo LPS-induced acute inflammation in mice (Q-PCR of lung/spleen, serum Elisa). The conditions noted are these: 30 mg/kg orally 2 h after 3 mg/kg LPS i.p.; samples 4 h after administration. Further details: species or system C57BL/6 mice. How it is done: In this example, the effects of compounds on LPS-induced acute inflammation model in vivo were analyzed by the expression levels of inflammatory factors; the mRNA expression levels of tissue inflammation-related indicators were detected by the method of real-time quantitative PCR (Q-PCR), and the levels of inflammatory factors in serum were detected by the method of Elisa. C57BL/6 mice were purchased from SLAC, and the Elisa kits were purchased from Novusbio, with item no. 890860 for IL-6 and item no. 266117 for TNF-α. […]
Construction of inflammation model in mice: C57BL/6 mice were randomly divided into three groups: one control group, five experimental animals; one LPS modeling group, with five experimental animals; and two treatment groups, with five experimental animals. […] The blood was collected from the orbit of mice in each group at 4 h after the administration of the drug, and the spleen and lung tissues were collected after the euthanasia. mRNA was extracted from lung and spleen tissues respectively, and real-time quantitative PCR was performed after reverse transcription to assess the mRNA expression level of inflammation-related indicators, and Elisa assay was performed after serum extraction to assess the secretion level of inflammatory factors.

Entries after “also recorded” stand apart in the source; their conditions may differ.

With `COc1cc2c3cc1Oc1c(OC)c(OC)cc4c1[C@H](Cc1ccc(cc1)Oc1cc(ccc1C(N)=O)C[C@H]3N(C)CC2)N(C)CC4` [Compound 4], the “inflammatory factors and chemokines, mRNA levels and cytokine secretion levels, LPS-induced acute inflammation in mice” value is given as “significantly inhibited; also recorded: significant decrease”.
